# Structures can show the parent of a compound that is named as a salt.
# Columns and labels:
# in vivo [1] = conditions: BALB/c, mouse, iv
# Protocol: We determined the pharmacokinetics of TPTC/TC-CQDs in mice bearing HeLa tumors. TPTC or TPTC/TC-CQDs were administered intravenously at a dose equivalent to 10 mg/kg TPTC, and the blood was collected at various time points. TPTC in the plasma was quantified by high performance liquid chromatography (HPLC). […] A second cohort of mice received the same treatment was subjected to characterization for biodistribution of TPTC based on TPTC fluorescence.
# The same lipid composition was used in several FDA-approved liposomal formulations, including Doxil© 38. […] The blood was collected at various time points. TPTC in the plasma was quantified by high performance liquid chromatography (HPLC).
# HeLa tumors = assay: Therapeutic evaluation in mice bearing HeLa tumors; assay type: in vivo; conditions: for tumors fifteen days later: intravenous
# Protocol: We assessed TPTC/TC-CQDs for cancer treatment using mice bearing HeLa tumors. […]
# Therapeutic evaluation in tumor-bearing mice. HeLa cells were subcutaneously inoculated into female BALB/c mice. When the tumor volumes reached ˜100 mm^3, the mice were intravenously administered with, saline, TPTC or TPTC/TC-CQDs (n=5). Changes in tumor volume and body weight were monitored daily. The volume of the tumor was calculated according to the following formula: V=D×d^2/2 (where D and d are the longest and shortest diameters of tumor, respectively, measured using a vernier caliper). Relative tumor volumes were calculated as V/V0(V0 is the initial tumor volume when the treatment was started).
# [2] = Toxicity evaluation in mice; assay type: in vivo
# Protocol: Toxicity evaluation in mice. Female BALB/c mice were intravenously administered with TPTC (10 mg/kg, 0.05 mL per mice) or TPTC/TC-CQDs (10 mg/kg for TPTC, 0.05 mL per mice) (n=5). Mice treated with saline were used as controls. At selected time points, blood samples were collected in heparinized microhematocrit tubes and centrifuged at a speed of 3000 rpm for 10 min. At the end of the study, mice were euthanized. Major organs, including the heart, liver, spleen, kidney and lung were excised, fixed in formalin, and analyzed.
# in vivo [3] = conditions: BALB/c, mouse
# Protocol: We repeated the characterization studies using A549 tumours. Experiments were carried out according to the same procedures as described above.
# HeLa cells = assay: Cellular toxicity test (CCK-8); assay type: cell-based, Human; conditions: concentration equivalent to 5 ug/mL TPTC
# Protocol: (§1) Cellular toxicity tests. […] After 12 h, the cultured medium was removed, and washed with PBS. One hundred microliters of fresh medium containing 10 μL CCK-8 (Sigma) was added to each well. After 2 h incubation at 37° C., the absorbance at 450 nm was measured using a microplate reader.
# CCC-ESF-1 cells = assay: Cellular toxicity test (CCK-8); assay type: cell-based, Human; conditions: concentration equivalent to 5 ug/mL TPTC
# Protocol: as §1
# LAT1 [4] = target: T1, LAT1 (Homo sapiens, UniProt Q01650); assay: LCSM: effect of Leu, Phe, Gly or BCH pre-treatment on uptake of LAAM TC-CQDs; assay type: cell-based; conditions: HeLa cells, excess of the agent prior to adding LAAM TC-CQDs
# T1 construct: we treated HeLa cells with an excess of leucine (Leu), phenylalanine (Phe), or glycine (Gly) prior to adding LAAM TC-CQDs; endogenous in cells; host or cells: HeLa (also A549, PANC-1, MCF-7, MDA-MB-231, MDA-MB-231 SP in the flow cytometry)
# Protocol: (§2) To investigate the mechanism that accounts for the cellular uptake of LAAM TC-CQDs, we treated HeLa cells with an excess of leucine (Leu), phenylalanine (Phe), or glycine (Gly) prior to adding LAAM TC-CQDs. Except Gly, both Leu and Phe are known to be high-affinity substrates to LAT1^27. […] This hypothetical mechanism is supported by several lines of evidence.
# Confocal laser scanning microscope imaging. […] After 8 h, cells were washed with PBS twice, fixed with 4% polyformaldehyde for 30 min at room temperature, followed by addition of DAPI for cell nuclei staining. Finally, the slides were washed three times, fixed, sealed with cover glasses, and imaged with excitation/emission: 561/700 using a confocal laser scanning microscopy (Leica TCS-SP8, Germany). To determine the effects of Leu, Phe, Gly or BCH on CQD uptake, HeLa cells were placed and treated with Leu, Phe, Gly or BCH. Four hours later, LAAM TC-CQDs were added to cells. After an additional 8 h, the cells were washed, fixed, and imaged.
# LAT1 [5] = target: T1, LAT1; assay: Flow cytometry: uptake rate of LAAM TC-CQDs after BCH pre-treatment; assay type: cell-based; conditions: across HeLa, A549, PANC-1, MCF-7, MDA-MB-231, MDA-MB-231 SP cells
# Source text: as §2
# Flow cytometry. MDA-MB-231 SP cells were sorted according to our previously reported methods^22. Briefly, cells harvested at about 85% confluence were resuspended in RPMI-1640 supplemented with 2% fetal bovine serum (FBS) at a density of 1×10^6 cells/mL and incubated with Hoechst 33342 at a concentration of 5 μg/mL at 37° C. After 90 min, the cells were suspended in cold PBS at a concentration of 1×10^6 cells/mL, filtered through a 40 μm cell strainer to remove cell aggregates, stained with 1 μg/mL propidium iodide (PI), and analyzed and sorted using a FACSDiva (Becton Dickinson, USA). […] The cells were washed 3 times with cold PBS, resuspended in […] of cold PBS, and analyzed by a FACScan flow cytometer (BD, Ann Arbor, Mich.). […] After 12 h, the cells were washed with fresh medium, trypsinized, resuspended in PBS with 0.5% FBS, and analyzed using a BD FACSCalibur (BD Biosciences, USA). Data were analyzed using FlowJo 7.6.
# [6] = 10 mg/kg TPTC (or equivalent) at days 1, 4, 8, and 12
# T1 sequence (Q01650 whole entry): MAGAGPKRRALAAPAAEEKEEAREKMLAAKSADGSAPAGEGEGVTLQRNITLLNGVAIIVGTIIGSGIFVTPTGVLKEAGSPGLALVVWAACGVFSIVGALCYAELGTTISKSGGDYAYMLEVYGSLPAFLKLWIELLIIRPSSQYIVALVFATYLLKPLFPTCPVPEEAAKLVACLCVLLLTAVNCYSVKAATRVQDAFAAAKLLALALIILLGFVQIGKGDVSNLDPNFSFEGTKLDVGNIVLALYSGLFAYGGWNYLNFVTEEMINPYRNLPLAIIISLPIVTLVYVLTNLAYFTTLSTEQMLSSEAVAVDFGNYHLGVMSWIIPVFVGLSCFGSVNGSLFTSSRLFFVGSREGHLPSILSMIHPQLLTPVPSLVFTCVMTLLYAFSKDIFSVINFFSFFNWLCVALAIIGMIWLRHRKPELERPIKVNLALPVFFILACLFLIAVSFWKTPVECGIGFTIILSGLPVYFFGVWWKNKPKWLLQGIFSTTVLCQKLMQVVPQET
# T1 sequence (P08195 102-630 partner): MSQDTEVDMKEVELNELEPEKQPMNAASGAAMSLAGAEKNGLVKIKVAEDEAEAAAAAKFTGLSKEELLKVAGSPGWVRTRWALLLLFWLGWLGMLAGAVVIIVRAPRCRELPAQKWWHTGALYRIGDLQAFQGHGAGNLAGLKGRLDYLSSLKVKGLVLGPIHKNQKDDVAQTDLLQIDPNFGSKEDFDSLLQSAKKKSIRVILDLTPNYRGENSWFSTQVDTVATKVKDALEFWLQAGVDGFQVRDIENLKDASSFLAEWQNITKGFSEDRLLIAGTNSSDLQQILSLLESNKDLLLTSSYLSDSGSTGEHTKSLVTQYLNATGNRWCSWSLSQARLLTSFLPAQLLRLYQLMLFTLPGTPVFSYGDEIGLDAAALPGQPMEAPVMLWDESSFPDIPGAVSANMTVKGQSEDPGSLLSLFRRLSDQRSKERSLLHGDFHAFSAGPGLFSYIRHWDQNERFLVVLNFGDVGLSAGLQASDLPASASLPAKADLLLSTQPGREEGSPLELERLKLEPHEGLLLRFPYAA
structure (smiles),measurement,setting,value
"CC[C@@]1(O)C(=O)OCc2c1cc1n(c2=O)Cc2cc3c(CN(C)C)c(O)ccc3nc2-1 [TPTC, topotecan hydrochloride]",half-life,in vivo [1]; 2 mg/kg,5.4 min
same,half-life,in vivo [1]; 10 mg/kg,5 min
same,median survival,HeLa tumors; 2 mg/kg TPTC (or equivalent),30 days
same,survival,HeLa tumors; [6],40 days
same,tumors fifteen days later,"HeLa tumors; 2 mg/kg TPTC (or equivalent) at days 1, 4, 8, and 12",continuously grew
same,tumors fifteen days later,HeLa tumors; [6],continuously grew
same,H&E analysis of major organs,[2],"obvious myocardial fiber rupture, diffuse ballooning degeneration of hepatocytes, pulmonary hyperemia, and focal tubular necrosis"
same,body weight,[2]; throughout the study,weight loss was observed
same,half-life,in vivo [3],5.9 min
same,toxicity to HeLa cells,HeLa cells,inhibited both cells at a comparable efficiency
same,toxicity to non-cancerous CCC-ESF-1 cells,CCC-ESF-1 cells,inhibited both cells at a comparable efficiency
"N[C@@H](Cc1ccccc1)C(=O)O [Phe, phenylalanine]",effect of pre-treatment on uptake of LAAM TC-CQDs,LAT1 [4],significantly inhibited
"NC1(C(=O)O)CC2CCC1C2 (stereo not shown) [BCH, 2-aminobicyclo-(2,2,1)-heptane-2-carboxylic acid]",cellular uptake rate of LAAM TC-CQDs after pre-treatment with BCH,LAT1 [5],~20%
same,effect of pre-treatment on uptake of LAAM TC-CQDs,LAT1 [4],dramatically reduces
"CC(C)C[C@H](N)C(=O)O [Leu, leucine]",effect of pre-treatment on uptake of LAAM TC-CQDs,LAT1 [4],significantly inhibited
"NCC(=O)O [Gly, glycine]",effect of pre-treatment on uptake of LAAM TC-CQDs,LAT1 [4],not

# Source: patent publication US20220401586A1, “CARBON QUANTUM DOTS AND USES THEREOF” (CNANO MEDICINE CORP., priority 2019, published 2022)
